In patent publication US20250221971A1, “METHODS OF TREATMENT FOR CYSTIC FIBROSIS” (Vertex Pharmaceuticals Incorporated, priority 2022, published 2025):

How the values were obtained:
[1] = First-in-human clinical study of safety, tolerability and PK in healthy subjects; format: in vivo; settings: all cohorts (Parts A, B, C), single doses 0.6-540 mg, multiple total daily doses 2-315 mg
Protocol: In a first-in-human (FIH) clinical study of Compound I, designed to evaluate the safety, tolerability, and pharmacokinetics (PK) of Compound I in healthy subjects, an assessment of drug-drug interactions (DDIs) between Compound I and itraconazole and midazolam was conducted.
This first-in-human (FIH) study of Compound I included three parts (Parts A, B, and C).
Approximately 154 healthy adult subjects were planned to be enrolled in planned cohorts. Approximately 76 subjects were planned to be enrolled in Part A, approximately 48 subjects in Part B, and approximately 30 subjects in Part C. There was no pre-specified ratio of males to females, but reasonable effort was made to enroll females of non-childbearing potential in all dosing cohorts.
Six dose escalation cohorts each were planned for Parts A and B. Additional cohorts in Part A were enrolled based on data from previous cohorts. In each cohort, approximately eight subjects were randomized 3:1 to receive Compound I or placebo as a suspension, under fasted or fed conditions. Eight subjects were enrolled in food-effect Cohort A9 to receive open-label Compound I; subsequent cohorts were dosed under fed conditions. […]
Food effect was evaluated in open-label, single-sequence Cohort A9 to evaluate the effect of food on the PK of Compound I based on emerging PK data during dose escalation. […]

[2] = biological target: T1, CFTR in F508del/MF-HBE cells (Homo sapiens, UniProt P13569, DEL508-508); test: Ussing chamber assay of CFTR-mediated short-circuit currents (potentiator identification); format: cell-based; settings: with 10 μM Compound VII, 18-24 hours at 37° C., 20% human serum
T1 construct: human bronchial epithelial (HBE) cells derived from CF subjects heterozygous for F508del and a minimal function CFTR mutation; endogenous in cells; host or cells: primary human bronchial epithelial cells from CF subjects (F508del/MF-HBE)
T1 sequence (P13569 with tags, fused parts or gaps DEL508-508): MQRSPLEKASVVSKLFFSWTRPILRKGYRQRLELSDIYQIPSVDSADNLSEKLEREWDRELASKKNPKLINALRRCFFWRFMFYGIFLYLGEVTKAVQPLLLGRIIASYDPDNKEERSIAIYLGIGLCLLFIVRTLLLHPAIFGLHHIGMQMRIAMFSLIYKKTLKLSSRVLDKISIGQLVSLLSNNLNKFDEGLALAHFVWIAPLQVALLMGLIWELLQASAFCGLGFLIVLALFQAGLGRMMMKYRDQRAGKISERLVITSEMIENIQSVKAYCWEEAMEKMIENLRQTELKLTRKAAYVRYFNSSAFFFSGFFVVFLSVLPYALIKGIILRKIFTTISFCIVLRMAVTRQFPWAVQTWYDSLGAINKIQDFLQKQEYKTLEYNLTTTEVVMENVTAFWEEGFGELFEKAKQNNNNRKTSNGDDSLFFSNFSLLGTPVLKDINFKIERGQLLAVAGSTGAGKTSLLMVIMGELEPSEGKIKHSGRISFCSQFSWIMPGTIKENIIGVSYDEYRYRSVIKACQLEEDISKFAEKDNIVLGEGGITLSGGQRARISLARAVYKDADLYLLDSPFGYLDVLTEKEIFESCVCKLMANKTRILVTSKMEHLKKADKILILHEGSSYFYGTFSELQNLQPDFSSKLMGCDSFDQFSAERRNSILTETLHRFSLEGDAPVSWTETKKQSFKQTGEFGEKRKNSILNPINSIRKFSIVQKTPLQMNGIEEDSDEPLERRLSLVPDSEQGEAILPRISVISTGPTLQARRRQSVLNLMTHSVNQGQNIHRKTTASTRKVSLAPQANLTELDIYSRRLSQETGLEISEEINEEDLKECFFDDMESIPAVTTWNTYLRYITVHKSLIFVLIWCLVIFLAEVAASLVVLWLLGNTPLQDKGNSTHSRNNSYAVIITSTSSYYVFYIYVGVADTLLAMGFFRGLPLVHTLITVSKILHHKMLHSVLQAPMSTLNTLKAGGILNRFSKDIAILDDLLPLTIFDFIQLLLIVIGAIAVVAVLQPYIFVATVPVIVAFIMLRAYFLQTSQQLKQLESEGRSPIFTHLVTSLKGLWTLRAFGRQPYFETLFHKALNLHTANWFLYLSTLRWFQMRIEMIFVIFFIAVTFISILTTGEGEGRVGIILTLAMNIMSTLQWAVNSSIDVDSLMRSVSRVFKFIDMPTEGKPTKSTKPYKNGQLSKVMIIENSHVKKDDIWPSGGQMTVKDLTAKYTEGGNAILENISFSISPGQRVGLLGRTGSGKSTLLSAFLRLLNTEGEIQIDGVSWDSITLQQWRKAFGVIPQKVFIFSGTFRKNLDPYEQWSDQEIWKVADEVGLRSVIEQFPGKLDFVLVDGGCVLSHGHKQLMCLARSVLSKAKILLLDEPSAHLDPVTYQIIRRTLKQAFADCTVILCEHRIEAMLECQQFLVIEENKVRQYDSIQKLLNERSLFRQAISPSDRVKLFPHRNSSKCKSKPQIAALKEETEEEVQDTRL
Protocol: Ussing chamber experiments were performed using human bronchial epithelial (HBE) cells derived from CF subjects heterozygous for F508del and a minimal function CFTR mutation (F508del/MF-HBE) and cultured as previously described (Neuberger T., Burton B., Clark H., Van Goor F. Methods Mol Biol 2011:741:39-54). After four days the apical media was removed, and the cells were grown at an air liquid interface for >14 days prior to use.
To isolate the CFTR-mediated short-circuit (ISC) current, F508del/MF-HBE grown on Costar® Snapwell™ cell culture inserts were mounted in an Ussing chamber and the transepithelial ISC was measured under voltage-clamp recording conditions (Vhold=0 mV) at 37° C. The basolateral solution contained (in mM) 145 NaCl, 0.83 K2HPO4, 3.3 KH2PO4, 1.2 MgCl2, 1.2 CaCl2), 10 Glucose, 10 HEPES (pH adjusted to 7.4 with NaOH) and the apical solution contained (in mM) 145 NaGluconate, 1.2 MgCl2, 1.2 CaCl2), 10 glucose, 10 HEPES (pH adjusted to 7.4 with NaOH) and 30 μM amiloride to block the epithelial sodium channel. […] The CFTR-mediated ISC (μA/cm^2) for each condition was determined from the peak forskolin response to the steady-state current following inhibition.
The activity of the CFTR potentiator compounds on the CFTR-mediated ISC was determined in Ussing chamber studies as described above. […]

EC50 [2]: < 500 nM
Structure (SMILES): C[C@@H]1CCCCC[C@](O)(C(F)(F)F)C2=NN=C(O2)c2nc(c(C(F)(F)F)cc2N)O1 [Compound I, (6R,12R)-17-amino-12-methyl-6,15-bis(trifluoromethyl)-13,19-dioxa-3,4,18-triazatricyclo[12.3.1.12,5]nonadeca-1(18),2,4,14,16-pentaen-6-ol]
safety and tolerability [1]: generally safe and well-tolerated
